Measured values taken from patent publication US11851391B2, “Antifungal compounds and methods of forming the same” (University of Kentucky Research Foundation, priority 2018, dated 2023).
In brackets after ≈: the same amount, converted by molar mass. Entries after “also recorded” stand apart in the source; their conditions may differ. Where two headings read alike, the source gives them in different places.

Legend:
[1] = test system: Candida albicans ATCC 10231(R) (strain A); experiment: MIC determination, in vitro antifungal assay (CLSI M27-A3); assay type: cell-based; conditions: MIC-0 (no visible growth), 48 h at 35° C.
Experimental: (§1) The activity of N,N′-diaryl-bishydrazones 7-22 was tested against a panel of seven strains of C. albicans: ATCC 10231(R) (A), ATCC 64124(R) (B), ATCC MYA-2876(S) (C), ATCC 90819(R) (D), ATCC MYA-2310(S) (E), ATCC MYA-1237(R) (F), and ATCC MYA-1003(R) (G). The activity of these bishydrazones 7-22 was also explored against a panel of three non-albicans Candida strains: C. glabrata ATCC 2001 (H), C. krusei ATCC 6258 (I), and C. parapsilosis ATCC 22019 (J). Finally, the activity of these bishydrazones 7-22 was explored against three Aspergillus strains: A. flavus ATCC MYA-3631 (K), A. nidulans ATCC 38163 (L), and A. terreus ATCC MYA-3633 (M).
(§2) Candida albicans ATCC 10231 (A), C. albicans ATCC 64124 (B), and C. albicans ATCC MYA-2876 (C) were kindly provided by Dr. Jon Y. Takemoto (Utah State University, Logan, UT, USA). C. albicans ATCC 90819 (D), C. albicans ATCC MYA-2310 (E), C. albicans ATCC MYA-1237 (F), C. albicans ATCC MYA-1003 (G), Candida glabrata ATCC 2001 (H), Candida krusei ATCC 6258 (I), Candida parapsilosis ATCC 22019 (J), Aspergillus flavus ATCC MYA-3631 (K), and Aspergillus terreus ATCC MYA-3633 (M) were obtained from the American Type Culture Collection (ATCC; Manassas, VA, USA). Aspergillus nidulans ATCC 38163 (L) was received from Dr. Jon S. Thorson (University of Kentucky, Lexington, KY, USA). Filamentous fungi and yeasts were cultivated at 35° C. in RPMI 1640 medium (with 1-glutamine, without sodium biocarbonate, Sigma-Aldrich, St. Louis, MO) buffered to a pH of 7.0 with 0.165 M morpholinepropanesulfonic acid (MOPS) buffer (Sigma-Aldrich).
(§3) The MIC values of compounds 7a-24c against yeast cells (strains A-J) were determined in 96-well plates as described in the CLSI document M27-A3 with minor modifications. A single colony of freshly prepared yeast cells was used to inoculate 5 mL of yeast extract peptone dextrose (YPD) broth prior to incubation overnight with shaking at 200 rpm at 35° C. From the actively growing yeast culture, 100 μL were then transferred to 900 μL of sterile ddH2O and re-adjusted to achieve OD600 of 0.12 (˜1×10^6 CFU/mL). The cell suspension was further diluted to achieve 2-4×10^3 CFU/mL in RPMI 1640 medium. […] The final concentration of DMSO was ensured to be <1.25% in all experiments. The MIC values for compounds 7a-24c and CAS were defined as the minimum drug concentration that yielded complete inhibition (also known as MIC-0).

[2] = test system: Candida parapsilosis ATCC 22019 (strain J); experiment: as above; assay type: cell-based; conditions: strain J, MIC-0, 48 h at 35° C.
Experimental: as §1, §2, §3

[3] = test system: C. albicans ATCC MYA-1237(R) (strain F); experiment: as above; assay type: cell-based, Candida albicans; conditions: Candida albicans, 48 h, MIC-0, 48 h at 35° C., read-out: MIC
Experimental: as §1, §2, §3

[4] = test system: C. albicans ATCC 90819(R) (strain D); experiment: as above; assay type: cell-based, Candida albicans; conditions: Candida albicans, ATCC90819, 48 h, MIC-0, 48 h at 35° C., read-out: MIC
Experimental: as §1, §2, §3

[5] = test system: C. albicans ATCC MYA-2310(S) (strain E); experiment: as above; assay type: cell-based, Candida albicans; conditions: Candida albicans, 48 h, MIC-0, 48 h at 35° C., read-out: MIC
Experimental: as §1, §2, §3

[6] = test system: C. albicans ATCC 64124(R) (strain B); experiment: as above; assay type: cell-based, Candida albicans; conditions: Candida albicans, ATCC64124, 48 h, strain B; MIC-0; 48 h at 35° C.; read-out: MIC
Experimental: as §1, §2, §3

[7] = test system: C. albicans ATCC MYA-2876(S) (strain C); experiment: as above; assay type: cell-based, Candida albicans; conditions: Candida albicans, 48 h, MIC-0, 48 h at 35° C., read-out: MIC
Experimental: as §1, §2
(§4) A single colony of freshly prepared yeast cells was used to inoculate 5 mL of yeast extract peptone dextrose (YPD) broth prior to incubation overnight with shaking at 200 rpm at 35° C. From the actively growing yeast culture, 100 μL were then transferred to 900 μL of sterile ddH2O and re-adjusted to achieve OD600 of 0.12 (˜1×10^6 CFU/mL). The cell suspension was further diluted to achieve 2-4×10^3 CFU/mL in RPMI 1640 medium. […] The final concentration of DMSO was ensured to be <1.25% in all experiments.

[8] = test system: C. albicans ATCC MYA-1003(R) (strain G); experiment: as above; assay type: cell-based, Candida albicans; conditions: MIC-0, 48 h at 35° C.
Experimental: as §1, §2, §4

[9] = test system: various yeast strains and filamentous fungi (strains A-M); experiment: Antifungal activity over the whole panel (summary of MIC data); assay type: cell-based, Candida and Aspergillus strains; conditions: for MIC: against all fungal strains tested, with named exceptions, read-out: antifungal activity class based on MIC values; for antifungal activity (in words): over the fungal strains tested, based on MIC data of Table 1
Experimental: as §1, §3
(§5) Similarly, the MIC values of compounds 7a-24c, as well as that of the two control drugs against filamentous fungi (strains K-M) were determined as previously described in CLSI document M38-A2. Spores were harvested from sporulating cultures growing on potato dextrose agar (PDA) by filtration through sterile glass wool and enumerated by using a hemocytometer to obtain the desired inoculum size. […] Spore suspensions were added to the wells to afford a final concentration of 5×10^5 CFU/mL. The plates were incubated at 35° C. for 48 h. The MIC values of compounds 7a-24c and CAS against filamentous fungi were based on the complete inhibition of growth when compared to the growth control (MIC-0). […] Each test was performed in triplicate.

[10] = test system: Candida krusei ATCC 6258 (strain I); experiment: MIC determination, in vitro antifungal assay (CLSI M27-A3); assay type: cell-based; conditions: Pichia kudriavzevii, ATCC6258, 48 h, MIC-0, 48 h at 35° C., read-out: MIC
Experimental: as §1, §2, §4

[11] = test system: Candida glabrata ATCC 2001 (strain H); experiment: as above; assay type: cell-based; conditions: Nakaseomyces glabratus, ATCC2001, 48 h, MIC-0, 48 h at 35° C., read-out: MIC
Experimental: as §1, §2, §4

[12] = test system: Aspergillus nidulans ATCC 38163 (strain L); experiment: MIC determination against filamentous fungi (CLSI M38-A2); assay type: cell-based; conditions: MIC-0, 48 h at 35° C.
Experimental: as §1, §2, §5

[13] = test system: Aspergillus terreus ATCC MYA-3633 (strain M); experiment: as above; assay type: cell-based; conditions: Aspergillus terreus, 48 h, MIC-0, 48 h at 35° C., read-out: MIC
Experimental: as §1, §2, §5

[14] = test system: Aspergillus flavus ATCC MYA-3631 (strain K); experiment: as above; assay type: cell-based; conditions: MIC-0, 48 h at 35° C.
Experimental: as §1, §2, §5

[15] = test system: murine red blood cells (mRBCs); conditions: for Percentage of hemolysis (±SDEV): mouse, 60 min
Experimental: Thus, the hemolytic activity for these bishydrazones was investigated against murine red blood cells (mRBCs).
Murine red blood cells (mRBCs) were prepared by suspending 1 mL of murine blood in 3 mL of PBS prior to centrifugation at 1,000 rpm for 5 min. The mRBCs were washed four times in PBS and resuspended in the same buffer to a final concentration of 10^7 mRBC/mL. […] The tubes were incubated at 37° C. for 60 min. […] Eppendorf tubes containing 200 μL of ddH2O and 2 μL of 1% v/v Triton™ X-100 served as negative (blank) and positive controls, respectively. The percentage of hemolysis was calculated using the following equation: % hemolysis=[(absorbance of sample)−(absorbance of blank)]×100/(absorbance of positive control).

[16] = Candida albicans, ATCC10231, 48 h, read-out: MIC
[17] = Lodderomyces parapsilosis, ATCC22019, 48 h, read-out: MIC
[18] = Candida albicans, 48 h, read-out: MIC
[19] = Aspergillus nidulans, ATCC38163, 48 h, read-out: MIC
[20] = Aspergillus flavus, 48 h, read-out: MIC

Structure (SMILES)	MIC [1, 16] [µg/mL]	MIC [1] [µg/mL]	MIC [2, 17] [µg/mL]	MIC [3] [µg/mL]	MIC [4] [µg/mL]	MIC [5] [µg/mL]	MIC [6] [µg/mL]	MIC [7] [µg/mL]	MIC [8, 18] [µg/mL]	MIC [9] [µg/mL]	MIC [10] [µg/mL]	MIC [11] [µg/mL]	MIC [12, 19] [µg/mL]	MIC [13] [µg/mL]	MIC [14, 20] [µg/mL]	antifungal activity (in words) [9]	also measured
COc1ccccc1N/N=C(\C)c1ccc(-c2ccc(/C(C)=N/Nc3ccccc3OC)cc2)cc1 [Compound 9c]	15.6 (≈ 32.6 µM)	15.6 (≈ 32.6 µM)	31.3 (≈ 65.4 µM)	> 31.3	> 31.3	> 31.3	> 31.3	> 31.3	31.3 (≈ 65.4 µM)	≥ 31.3	31.3 (≈ 65.4 µM)	> 31.3	> 31.3	> 31.3	> 31.3	–	–
Clc1ccc(N/N=C/c2ccc(-c3cccc(/C=N/Nc4ccc(Cl)cc4)c3)cc2)cc1 [Compound 18a]	7.8 (≈ 17 µM)	–	1.95 to 3.9 (≈ 4.24 to 8.49 µM)	15.6 (≈ 34 µM)	15.6 (≈ 34 µM)	31.3 (≈ 68.1 µM)	7.8 (≈ 17 µM)	15.6 (≈ 34 µM)	1.95 to 3.9 (≈ 4.24 to 8.49 µM)	–	31.3 (≈ 68.1 µM)	15.6 (≈ 34 µM)	> 31.3	> 31.3	> 31.3	overall antifungal activity against all the strains tested; also recorded: good activity against the majority of the fungal strains tested; also recorded: excellent activity only against yeast strains	MIC [2]: 3.9 µg/mL (≈ 8.49 µM); MIC [8]: 3.9 µg/mL (≈ 8.49 µM)
Fc1cc(F)cc(N/N=C/c2ccc(-c3ccc(/C=N/Nc4cc(F)cc(F)c4)cc3)cc2)c1 [Compound 22b]	15.6 (≈ 33.7 µM)	15.6 (≈ 33.7 µM)	> 31.3	> 31.3	> 31.3	> 31.3	> 31.3	> 31.3	> 31.3	≥ 31.3	> 31.3	> 31.3	> 31.3	> 31.3	> 31.3	no activity	–
Clc1ccc(N/N=C/c2ccc(-c3ccc(/C=N/Nc4ccc(Cl)cc4)cc3)cc2)cc1 [Compound 18b]	> 31.3	–	31.3 (≈ 68.1 µM)	> 31.3	> 31.3	> 31.3	> 31.3	> 31.3	> 31.3	–	31.3 (≈ 68.1 µM)	> 31.3	> 31.3	31.3 (≈ 68.1 µM)	> 31.3	inactive	–
C(=N\Nc1ccccc1)/c1ccc(-c2ccc(/C=N/Nc3ccccc3)cc2)cc1 [Compound 7b]	7.8 (≈ 20 µM)	–	> 31.3	> 31.3	31.3 (≈ 80.2 µM)	> 31.3	> 31.3	> 31.3	> 31.3	–	> 31.3	> 31.3	1.95 to 3.9 (≈ 4.99 to 9.99 µM)	15.6 (≈ 39.9 µM)	1.95 to 3.9 (≈ 4.99 to 9.99 µM)	–	hemolytic activity (in words) [15]: lack of hemolytic activity; Percentage of hemolysis (±SDEV) ([15]; 0.975 μg/mL): 0.1 ± 0.1%; Percentage of hemolysis (±SDEV) ([15]; 1.95 μg/mL): 3.7 ± 1.6%; Percentage of hemolysis (±SDEV) ([15]; 3.9 μg/mL): 3.4 ± 1.7%; Percentage of hemolysis (±SDEV) ([15]; 7.8 μg/mL): 2.9 ± 1.1%; Percentage of hemolysis (±SDEV) ([15]; 15.6 μg/mL): 14.1 ± 6.0%; Percentage of hemolysis (±SDEV) ([15]; 31.3 μg/mL): 10.8 ± 0.6%; MIC [12]: 1.95 µg/mL (≈ 4.99 µM); MIC [14]: 3.9 µg/mL (≈ 9.99 µM)
